We go through six compounds from US20220363689A1, “INHIBITOR OF BTK AND MUTANTS THEREOF” (Newave Pharmaceutical Inc., priority 2019, published 2022).

Data set [1] deals with liver cancer cell line HepG2. The experiment in a line: HepG2 in vitro liver toxicity assay (ATPlite). In kind it is cell-based. The settings on record: another experiment, about 72 hours incubation, read-out: HepG2 IC50 (another experiment). As to the method: Cell antiproliferation is assayed by PerkinElmer ATPlite™ Luminescence Assay System. Briefly, the liver cancer cell line HepG2 are plated at a density of about 1×10^4 cells per well in Costar 96-well plates, and are incubated with different concentrations of compounds for about 72 hours in medium supplemented with 5% FBS. One lyophilized substrate solution vial is then reconstituted by adding 5 mL of substrate buffer solution, and is agitated gently until the solution is homogeneous. About 50 μL of mammalian cell lysis solution is added to 100 μL of cell suspension per well of a microplate, and the plate is shaken for about five minutes in an orbital shaker at −700 rpm. This procedure is used to lyse the cells and to stabilize the ATP. Next, 50 μL substrate solution is added to the wells and microplate is shaken for five minutes in an orbital shaker at −700 rpm. Finally, the luminescence is measured by a PerkinElmer TopCount® Microplate Scintillation Counter. Such assays, carried out with a range of doses of test compounds, allow the determination of the cellular anti-antiproliferative IC50 of the compounds of the present invention.
On the technique in general: Cellular ATP, detected with luciferase, serves as a proxy for viable cell number.

Another data set can be described thus: Mice PK study. In kind it is in vivo. The settings on record: plasma, CD-1 mouse, po, 25 mg/kg. The method, then: The pharmacokinetics of compounds were evaluated in CD-1 mouse via Intravenous and Oral Administration. The IV dose was administered as a slow bolus in the Jugular vein, and oral doses were administered by gavage. The formulation for IV dosing is 5% DMSO in 20% HPBCD in water, and the PO formulation is 2.5% DMSO, 10% EtOH, 20% Cremphor EL, 67.5% D5W. The PK time point for the IV arm was 5, 15, 30 min, 1, 2, 4, 6, 8, 12, 24 hours post dose, and for PO arm was 15, 30 min, 1, 2, 4, 6, 8, 12, 24 hours post dose. Approximately 0.03 mL blood was collected at each time point. Blood of each sample was transferred into plastic micro centrifuge tubes containing EDTA-K2 and plasma was collected within 15 min by centrifugation at 4000 g for 5 minutes in a 4° C. centrifuge. Plasma samples were stored in polypropylene tubes. The samples were stored in a freezer at −75±15° C. prior to analysis. Concentrations of compounds in the plasma samples were analyzed using a LC-MS/MS method. WinNonlin (Phoenix™, version 6.1) or other similar software was used for pharmacokinetic calculations. The following pharmacokinetic parameters were calculated, whenever possible from the plasma concentration versus time data: IV administration: C0, CL, Vd, T1/2, AUCinf, AUClast, MRT, Number of Points for Regression; PO administration: Cmax, Tmax, T1/2, AUCinf, AUClast, F %, Number of Points for Regression. The pharmacokinetic data was described using descriptive statistics such as mean, standard deviation. Additional pharmacokinetic or statistical analysis was performed at the discretion of the contributing scientist, and was documented in the data summary. For comparison purpose, the PK results of oral dosing of po, 25 mg/kg of Acalbrutinib, a FDA approved BTK inhibitor, were obtained using the same methods and shown in the Table below.

The target in data set [2] is T1, WT BTK (Homo sapiens, UniProt Q06187). In words: In vitro dialysis assay (irreversibility assay), WT BTK. Conditions: reversible or irreversible/covalent inhibition after 24 h dialysis. In kind it is biochemical. The method, then:
The compound-enzyme complex was dialyzed against the same buffer supplemented with 40 mM ATP for 24 hr. Cumulative dialysis factor>160,000×. After dialysis, the BTK activity was measured in the presence […] and 1 mM substrate peptide and compared to that in non-dialyzed samples. Assay buffer: 100 mM HEPES, pH7.5; […]; 5 mM MgCl2; 1 mM DTT. In this study, Ibrutiib (a FDA approved irreversible BTK inhibitor) was used as a positive control and Saurosporine (a reversible BTK inhibitor) was used as a negative control.

For another data set, the target named is C4815S BTK enzyme (Homo sapiens, UniProt Q06187, C481S). In words: Reversibility of binding to C481S BTK enzyme. It is filed as biochemical. The settings on record: Cysteine residue not available for covalent binding.
C4815S BTK enzyme, sequence (Q06187 whole entry C481S): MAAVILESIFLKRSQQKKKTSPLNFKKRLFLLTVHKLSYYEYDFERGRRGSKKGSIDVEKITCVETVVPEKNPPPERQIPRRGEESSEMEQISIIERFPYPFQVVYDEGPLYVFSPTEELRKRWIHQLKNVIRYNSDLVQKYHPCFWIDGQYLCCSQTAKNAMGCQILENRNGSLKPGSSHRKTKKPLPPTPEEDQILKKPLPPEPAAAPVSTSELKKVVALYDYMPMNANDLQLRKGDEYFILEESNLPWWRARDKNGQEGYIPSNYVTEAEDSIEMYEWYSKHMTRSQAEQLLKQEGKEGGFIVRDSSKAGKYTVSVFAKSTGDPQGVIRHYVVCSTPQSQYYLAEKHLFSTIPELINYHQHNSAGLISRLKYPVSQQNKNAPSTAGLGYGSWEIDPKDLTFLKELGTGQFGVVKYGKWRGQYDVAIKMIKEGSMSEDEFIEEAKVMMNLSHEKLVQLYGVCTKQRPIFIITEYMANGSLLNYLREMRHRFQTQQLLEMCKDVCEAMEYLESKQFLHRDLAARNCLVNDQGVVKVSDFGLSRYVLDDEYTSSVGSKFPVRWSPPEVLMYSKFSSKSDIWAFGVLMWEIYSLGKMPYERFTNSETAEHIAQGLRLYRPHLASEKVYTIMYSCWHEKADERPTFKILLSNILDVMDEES
For data set [3], the target named is T1, WT BTK. The experiment in a line: Caliper-based kinase assay, WT BTK. In kind it is biochemical. The settings on record: 0.5 nM enzyme, ATP 16 μM, room temperature 3 h; read-out: WT BTK IC50 (nM) (irreversible inhibition). The method, then:
(§1) A Caliper-based kinase assay (Caliper Life Sciences, Hopkinton, Mass.) was used to measure inhibition of WT and […] Btk kinase activity of a compound of the present disclosure. […] The reaction was then terminated with EDTA, final concentration 20 mM and the phosphorylated reaction product was quantified on a Caliper Desktop Profiler (Caliper LabChip 3000).

The next data set concerns the target C481S Btk (Homo sapiens, UniProt Q06187, C481S). The experiment in a line: Caliper-based kinase assay, C481S BTK. Conditions: 0.5 nM enzyme, ATP 16 μM, room temperature 3 h; read-out: C481S BTK IC50 (nM) (reversible inhibition). It is filed as biochemical. As to the method:
as §1

Data set [4] relates to basophil activation, B cell receptor activation, and constitutive p-BTK activity in whole blood lysates. Conditions: read-out: IC50s for basophil activation, B cell receptor activation, and constitutive p-BTK activity; cited from earlier work.
For data set [5] the following is noted: rats, treatment for longer than 7 days; cited from earlier work.
For data set [6] the following is noted: mice, even at higher doses; cited from earlier work.
The conditions of data set [7]: dogs, even at higher doses; cited from earlier work.
The conditions of data set [8]: Phase I clinical trials, formulations containing GDC-0853; cited from earlier work.

Where two headings read alike, the source gives them in different places. Where only a bound is given, the exact number is not on record here.

T1 sequence (Q06187 whole entry): as the sequence (Q06187 whole entry C481S) above, with S481C counted along it
C481S Btk, sequence (Q06187 whole entry C481S): as the sequence (Q06187 whole entry C481S) above

For orientation: AUC means concentration integrated over time. High values mean more exposure, low ones less exposure. Take `CC#CC(=O)N1CCC[C@H]1c1nc(-c2ccc(C(=O)Nc3ccccn3)cc2)c2c(N)nccn12` [Acalabrutinib, reference compound]: the IC50 in data set [1] (Homo sapiens, HepG2) was over 40000 nM. The AUC in “Mice PK study” came to 1450 ng·h/mL. In addition, the half-life in the data set “Mice PK study” (read-out: t ½ (converted)) was 1.1 h.
In the case of `C=CC(=O)Nc1cc(Nc2nc(-c3ccnc(N4CCn5c(cc6c5CC(C)(C)C6)C4=O)c3CO)cn(C)c2=O)ccc1N1CCN(C)CC1` [Example 2, N-(5-((6-(2-(7,7-dimethyl-1-oxo-1,3,4,6,7,8-hexahydro-2H-cyclopenta[4,5]pyrrolo[1,2-a]pyrazin-2-yl)-3-(hydroxymethyl)pyridin-4-yl)-4-methyl-3-oxo-3,4-dihydropyrazin-2-yl)amino)-2-(4-methylpiperazin-1-yl)phenyl)acrylamide], the “Conclusion (WT BTK)” value at WT BTK [2] is given as “irreversible/covalent inhibition”. On C4815S BTK enzyme, the “Mode of binding to C481S BTK” value was “reversibly bind”.
Take `C=CC(=O)Nc1cc(Nc2nc(-c3ccnc(N4CCn5c(cc6c5CC(C)(C)C6)C4=O)c3CO)cn(C)c2=O)ccc1C1CN(C2COC2)CC(=O)N1C` (centres unmarked) [Example 42, N-(5-[[6-(2-[4,4-dimethyl-9-oxo-1,10-diazatricyclo[6.4.0.0^[2,6]]dodeca-2(6),7-dien-10-yl]-3-(hydroxymethyl)pyri-din-4-yl)-4-methyl-3-oxopyrazin-2-yl]amino]-2-[1-methyl-4-(oxetan-3-yl)-6-oxopiperazin-2-yl]phenyl)prop-2-enamide]: at WT BTK [2], the “Conclusion (WT BTK)” value is recorded as “Irreversible/covalent inhibition”. Also, the IC50 at WT BTK [3] was determined as 0.24 nM; on C481S Btk, 0.3 nM.
Taken in the same sequence, the figures for `C=CC(=O)Nc1cc(Nc2nc(-c3ccnc(N4CCn5c(cc6c5CC(C)(C)C6)C4=O)c3CO)cn(C)c2=O)ccc1C1CN(C)C(=O)CN1C1COC1` (centres unmarked) [Example 43] were “Irreversible/covalent inhibition”, 0.35 nM and 0.5 nM.
Consider `C=CC(=O)Nc1cc(Nc2nc(-c3ccnc(N4CCc5c(sc6c5CCCC6)C4=O)c3CO)cn(C)c2=O)ccc1N1CCN(C2CCOCC2)C[C@@H]1C` [Example 56, N-[5-([6-[3-(hydroxymethyl)-2-[6-oxo-8-thia-5-azatricyclo[7.4.0.0^[2,7]]trideca-1(9), 2(7)-dien-5-yl]pyridin-4-yl]-4-methyl-3-oxopyrazin-2-yl]amino)-2-[(2S)-2-methyl-4-(oxan-4-yl)piperazin-1-yl]phenyl]prop-2-enamide], for which the “Conclusion (WT BTK)” value on WT BTK [2] is “Irreversible/covalent inhibition”. Moreover, the IC50 amounted to 0.058 nM on WT BTK [3] and 26000 nM in data set [1].
`C[C@H]1CN(C2COC2)CCN1c1ccc(Nc2cc(-c3ccnc(N4CCn5c(cc6c5CC(C)(C)C6)C4=O)c3CO)cn(C)c2=O)nc1` [GDC-0853]: on WT BTK [2], the “Conclusion (WT BTK)” value is given as “Reversible”. The IC50 in [4] was 2 to 9 nM. The Pancreatic toxicity result is given as “pancreatic toxicity” in data set [5], “does not occur” in [6] and “does not occur” in [7]. Besides, the Tolerability entry in data set [8] is reported as “well-tolerated”.
